According to patent US20250340537A1, “PHARMACEUTICALLY ACTIVE COMPOUNDS, COMPOSITIONS, AND METHODS FOR MODULATING PENDRIN” (ARBORMED Co., Ltd., priority 2022, published 2025):

Columns and labels:
Format in all cases: cell-based
H723R-pendrin [1] = biological target: T1, H723R-pendrin (Homo sapiens, UniProt O43511, H723R); test: YFP fluorescence quenching assay (Cl−/I− exchange activity of pendrin); conditions: PANC-1 cells stably expressing human H723R-pendrin and YFP-F46L/H148Q/I152L; compound incubation 20-24 hours; iodide influx
T1 construct: expressed in transfected cells; host or cells: PANC-1
T1 sequence (O43511 1-780 H723R): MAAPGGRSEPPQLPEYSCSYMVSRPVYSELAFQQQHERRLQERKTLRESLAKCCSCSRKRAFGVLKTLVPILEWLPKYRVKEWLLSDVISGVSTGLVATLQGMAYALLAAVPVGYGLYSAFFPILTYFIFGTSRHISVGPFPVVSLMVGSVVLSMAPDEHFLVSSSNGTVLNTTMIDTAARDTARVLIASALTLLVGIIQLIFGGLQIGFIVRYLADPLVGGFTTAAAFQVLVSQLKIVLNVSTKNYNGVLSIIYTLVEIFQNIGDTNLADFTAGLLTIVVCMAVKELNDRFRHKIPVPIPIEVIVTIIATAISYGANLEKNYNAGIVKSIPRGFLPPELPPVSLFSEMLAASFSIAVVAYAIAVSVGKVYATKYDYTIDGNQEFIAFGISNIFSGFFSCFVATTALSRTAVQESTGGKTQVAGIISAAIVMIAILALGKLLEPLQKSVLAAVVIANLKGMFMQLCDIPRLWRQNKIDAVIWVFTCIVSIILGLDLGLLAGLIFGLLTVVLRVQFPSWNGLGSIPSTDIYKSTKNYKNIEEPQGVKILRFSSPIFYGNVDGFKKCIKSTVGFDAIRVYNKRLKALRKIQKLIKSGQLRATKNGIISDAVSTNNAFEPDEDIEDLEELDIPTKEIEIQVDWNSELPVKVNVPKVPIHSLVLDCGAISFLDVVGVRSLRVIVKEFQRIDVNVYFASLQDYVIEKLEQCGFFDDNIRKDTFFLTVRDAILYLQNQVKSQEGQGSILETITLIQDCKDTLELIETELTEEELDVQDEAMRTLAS
Description: Halide sensor YFP F46L/H148Q/I152L is quenched by halide ion like Iodide. When such YFP is expressed in a cell, it expresses in the cytoplasm.
To measure H723R-PDS activity, PANC-1 cells were stably transfected with halide sensors YFP-F46L/H148Q/I152L and H723R-PDS which has problems with membrane trafficking due to misfolding.
If the cell-treated drug is a corrector for H723R-PDS, H723R-PDS will translocate normally to the plasma membrane.
At this time, when treated with a high-concentration iodide solution outside the cell, iodide enters the cell due to the Cl−/I− exchange activity of pendrin, and the fluorescence of the halide sensor YFP decreases.
PANC-1 cells were cultured in Dulbecco's Modified Eagle's Medium with 10% fetal bovine serum, 2 mM glutamine, 100 units/ml penicillin and 100 µg/ml streptomycin. For high-throughput screening, PANC-1 cells were stably transfected with human H723R-pendrin and halide sensor YFP-F46L/H148Q/I152L.
PANC-1 cells expressing human H723R-pendrin and YFP-F46L/H148Q/I152L were plated in 96-well microplates at a density of 2×10^4 cells per well and grown for 20-24 hours at 37° C. (90% humidity 5% CO2). Then these cells were treated with 50 μl growth medium containing test compounds and incubated for 20-24 hours. For YFP quenching assay, each well of the 96-well plate was washed 2 times with 200 μl of PBS, and it was filled with 50 μl of HEPES-buffered solution (140 mM NaCl, 5 mM KCl, 1 mM MgCl2, 1 mM CaCl2, 10 mM D-glucose, 10 mM HEPES; pH 7.4 with NaOH). After 10 minutes of incubation at 37° C., the 96-well plate was moved on the FLUOstar Omega Microplate Reader (BMG Labtech, Ortenberg, Germany) for a fluorescence assay. Each well was assayed individually for H723R-pendrin mediated I^− influx by recording fluorescence (495±15 nm excitation, 520±20 nm emission) every 400 ms for 1 second (baseline). Then, 50 μL of NaI-substituted HEPES-buffered solution (NaI replacing NaCl) was added using a liquid injector at 1 second and YFP fluorescence was recorded every 400 ms for 10 seconds. The initial iodide influx rate was determined from the initial slope of fluorescence by nonlinear regression, after the infusion of iodide.
It is indicated as EC50 with the following key: A=EC50 less than 5 uM; B=EC50 greater than 5 uM, but less than 10 uM; C=EC50 greater than 10 uM.

H723R-hPDS = biological target: T2, H723R-hPDS (Homo sapiens, UniProt O43511, H723R); test: Surface biotinylation assay; conditions: Panc1 hPDS-H723R cells, 24 h treatment
T2 construct: expressed in transfected cells; host or cells: Panc1 (Panc1^hPDS-H723R)
T2 sequence (O43511 1-780 H723R): T1 sequence (O43511 1-780 H723R)
Description: Surface biotinylation is a commonly used technique to specifically isolate plasma membrane proteins using a modified biotin in a form that is easy to bind with proteins. Sulfo-NHS-SS-biotin is a generally used reagent in surface biotinylation due to its impermeability and water solubility. In cool conditions, the extracellular domain of membrane proteins is covalently binding with the reactive biotin ester. These proteins are separated from the whole lysate via a biotin-streptavidin response. In this process, we can validate the increasing rate of the expression level of mutant pendrin in the plasma membrane.
Panc1^parental, Panc1^hPDS-WT and Panc1^hPDS-H723R cells were cultured in high glucose DMEM medium supplemented with 10% fetal bovine serum and 1% antibiotics. 24 hours after seeding in 6-well plates, cells were treated as indicated for 24 h. Cells were washed in PBS and incubated on ice with 0.3 mg/ml biotin in PBS. After 35 min, 1% BSA in PBS, D.W mixture (1:1) was added to cells, and cells were incubated for 10 min. Cells were washed and lysed in lysis buffer. The lysates were sonicated for 20 seconds, and not boiled. After centrifugated, the supernatants were collected and quantified via BCA analysis. The quantified supernatants were added to 10% avidin beads in PBS and incubated overnight at 4° C. After incubation, the below steps were repeated 4 times: i) centrifugation, ii) removing the supernatant, iii) washing with lysis buffer. After the last centrifugation and removing the supernatant, the sample buffer mixed with reducing buffer was added to biotin-avidin mixtures. The elution was accomplished in the 38° C. bioshaker for 40 min and the supernatant was collected. The supernatant was separated by SDS-PAGE and transferred to an Immobilon membrane. After incubation in 5% BSA solution to prevent nonspecific binding, the membrane was incubated with specific antibodies overnight. Then, the membrane was washed with TBST buffer and incubated with HRP-conjugated anti-rabbit or -mouse antibody for 1 hour. The ECL buffer and iBright were used for the visualization of protein bands. The respective protein band intensity was quantified by densitometric analysis using the NIH ImageJ program.
It is indicated as expression % with the following key: A=Expression % greater than 100%; B=Expression % greater than 50%, but less than 100%; C=Expression % less than 50%.

H723R-pendrin [2] = biological target: T1, H723R-pendrin; test: PTI assay (Cl−/HCO3− exchange activity); conditions: PANC-1 cells, BCECF pHi
Method: Measurements of intracellular pH (pHi) in PANC-1 cells were performed with the pH-sensitive fluorescent probe 2′,7′-bis-(2-carboxyethyl)-5-(and-6)-carboxyfluorescein (BCECF) according to previously reported protocols. Briefly, cells were incubated with 2 μM BCECF acetoxy-methylester for 5 min and then perfused with a HCO3^−-buffered solution [containing 120 mM NaCl, 5 mM KCl, 1 mM MgCl2, 1 mM CaCl2, 10 mM d-glucose, 5 mM Hepes, and 25 mM NaHCO3 (pH 7.4)].
BCECF fluorescence was recorded at excitation wavelengths of 490 and 440 nm at a resolution of 2/s on a recording setup. The Cl^−/HCO3^− exchange activities were estimated from the initial rate of pHi increase as a result of Cl^− removal from the HCO3^−-containing buffer (25 mM HCO3^− with 5% CO2).
The pHi calibration was performed with standard pH solutions containing 150 mM KCl and 5 μM nigericin. The intrinsic buffer capacity (βi) was calculated by measuring ΔpHi in response to 5 to 40 mM NH4Cl pulses in Na^+-free solutions. Because the βi values were not substantially affected by transfection with the plasmids encoding for WT-pendrin or H723R-pendrin, the Cl^−/HCO3^− exchange activities were expressed as ΔpH unit/min without compensating for the buffer capacity.
It is indicated as exchange % with the following key: A=Exchange % greater than 50%; B=Exchange % less than 50%.

Compound | EC50 (H723R-pendrin [1]) | Surface expression % of H723R-hPDS relative to WT-hPDS (Glycosylated form pendrin) (H723R-hPDS; 3 uM) | Surface expression % of H723R-hPDS relative to WT-hPDS (Glycosylated form pendrin) (H723R-hPDS; 10 uM) | Cl−/HCO3− exchange, % of WT-hPDS (H723R-pendrin [2]; 3 uM) | Cl−/HCO3− exchange, % of WT-hPDS (H723R-pendrin [2]; 10 uM)
COc1ccc(-c2cncc(C3=C(N)N(CC(C)C)CC3=O)n2)cc1OC [Compound 8] | < 5 µM | B (B=Expression % greater than 50%, but less than 100%) | A (A=Expression % greater than 100%) |  | 
NC1=C(c2cncc(-c3ccc(O)c(O)c3)n2)C(=O)CN1C1CCCC1 [Compound 33] | < 5 µM | A (A=Expression % greater than 100%) | A (A=Expression % greater than 100%) |  | 
COc1cc(-c2cncc(C3=C(N)N(CC4CCCC4)CC3=O)n2)ccc1O [Compound 73] | < 5 µM |  |  | A (A=Exchange % greater than 50%) | A (A=Exchange % greater than 50%)
NC1=C(c2cncc(-c3ccc(O)c(O)c3)n2)C(=O)CN1CCC1CCCC1 [Compound 46] | < 5 µM | B (B=Expression % greater than 50%, but less than 100%) | A (A=Expression % greater than 100%) |  | 
COc1cc(-c2cncc(C3=C(N)N(c4ccccc4Cl)CC3=O)n2)ccc1O [Compound 28] | < 5 µM | A (A=Expression % greater than 100%) | A (A=Expression % greater than 100%) | B (B=Exchange % less than 50%) | A (A=Exchange % greater than 50%)
NC1=C(c2cncc(-c3ccc(O)c(O)c3)n2)C(=O)CN1CC1CCCCC1 [Compound 49] | < 5 µM | A (A=Expression % greater than 100%) | A (A=Expression % greater than 100%) | A (A=Exchange % greater than 50%) | A (A=Exchange % greater than 50%)
CC(C)CN1CC(=O)C(c2cncc(-c3ccc(O)c(O)c3)n2)=C1N [Compound 13] | < 5 µM | A (A=Expression % greater than 100%) | A (A=Expression % greater than 100%) |  | 
NC1=C(c2cncc(-c3ccc(O)c(O)c3)n2)C(=O)CN1C1CCC(F)(F)C1 (stereo not shown) [Compound 62] | < 5 µM | B (B=Expression % greater than 50%, but less than 100%) | A (A=Expression % greater than 100%) |  | 
NC1=C(c2cncc(-c3ccc(O)c(O)c3)n2)C(=O)CN1CC1CCC1 [Compound 69] | < 5 µM |  |  | B (B=Exchange % less than 50%) | A (A=Exchange % greater than 50%)
